Experimental data: US20250042876A1, “HERBICIDAL PYRAZOLE PYRIMIDINE COMPOUNDS” (SYNGENTA CROP PROTECTION AG, priority 2021, published 2025)

What was measured:
Format in all cases: in vivo
Settings in all cases: 250 g/ha, evaluated after 13 days
[1] = test system: Echinochloa crus-galli (ECHCG); test: Post-emergence herbicidal test, glasshouse
Procedure: (§1) Seeds of a variety of test species are sown in standard soil in pots Amaranthus palmeri (AMAPA), Amaranthus retoflexus (AMARE), Setaria faberi (SETFA), Echinochloa crus-galli (ECHCG), Ipomoea hederacea (IPOHE)). After cultivation for one day (pre-emergence) or after 8 days cultivation (post-emergence) under controlled conditions in a glasshouse (at 24/16° C., day/night; 14 hours light; 65% humidity), the plants are sprayed with an aqueous spray solution derived from the formulation of the technical active ingredient in acetone/water (50:50) solution containing 0.5% Tween 20 (polyoxyethelyene sorbitan monolaurate, CAS RN 9005-64-5). Compounds are applied at 250 g/ha unless otherwise stated. The test plants are then grown in a glasshouse under controlled conditions in a glasshouse (at 24/16° C., day/night; 14 hours light; 65% humidity) and watered twice daily. After 13 days for pre and post-emergence, the test is evaluated for the percentage damage caused to the plant. The biological activities are shown in the following table on a five-point scale (5=81-100%; 4=61-80%; 3=41-60%; 2=21-40%; 1=0-20%).

[2] = test system: Ipomoea hederacea (IPOHE); test: Post-emergence herbicidal test, glasshouse
Procedure: as §1

[3] = test system: Amaranthus palmeri (AMAPA); test: Post-emergence herbicidal test, glasshouse
Procedure: as §1

Setaria faberi (SETFA) [4] = test: Post-emergence herbicidal test, glasshouse
Procedure: as §1

[5] = test system: Amaranthus retoflexus (AMARE); test: Post-emergence herbicidal test, glasshouse
Procedure: as §1

[6] = test system: Echinochloa crus-galli (ECHCG); test: Pre-emergence herbicidal test, glasshouse
Procedure: as §1

[7] = test system: Ipomoea hederacea (IPOHE); test: Pre-emergence herbicidal test, glasshouse
Procedure: as §1

[8] = test system: Amaranthus palmeri (AMAPA); test: Pre-emergence herbicidal test, glasshouse
Procedure: as §1

Setaria faberi (SETFA) [9] = test: Pre-emergence herbicidal test, glasshouse
Procedure: as §1

[10] = test system: Amaranthus retoflexus (AMARE); test: Pre-emergence herbicidal test, glasshouse
Procedure: as §1

Row | SMILES | ECHCG percentage damage caused to the plant (five-point scale) [1] | IPOHE percentage damage caused to the plant (five-point scale) [2] | AMAPA percentage damage caused to the plant (five-point scale) [3] | SETFA percentage damage caused to the plant (five-point scale) (Setaria faberi (SETFA) [4]) | AMARE percentage damage caused to the plant (five-point scale) [5] | ECHCG percentage damage caused to the plant (five-point scale) [6] | IPOHE percentage damage caused to the plant (five-point scale) [7] | AMAPA percentage damage caused to the plant (five-point scale) [8] | SETFA percentage damage caused to the plant (five-point scale) (Setaria faberi (SETFA) [9]) | AMARE percentage damage caused to the plant (five-point scale) [10]
1 | FC(F)(F)c1ccc(-n2nc(C(F)(F)F)cc2Cc2ncc(Cl)cn2)cc1 [Compound 1.001, 5-chloro-2-[[5-(trifluoromethyl)-2-[4-(trifluoromethyl)phenyl]pyrazol-3-yl]methyl]pyrimidine] | 4 (4=61-80%) | 4 (4=61-80%) | 4 (4=61-80%) | 4 (4=61-80%) | 4 (4=61-80%) | 5 (5=81-100%) | 5 (5=81-100%) | 5 (5=81-100%) | 5 (5=81-100%) | 5 (5=81-100%)
2 | FC(F)(F)c1ccc(-n2nc(C(F)(F)F)cc2Cc2ncc(Br)cn2)cc1 [Compound 1.002, 5-bromo-2-[[5-(trifluoromethyl)-2-[4-(trifluoromethyl)phenyl]pyrazol-3-yl]methyl]pyrimidine] | 5 (5=81-100%) | 4 (4=61-80%) | 4 (4=61-80%) | 4 (4=61-80%) | 4 (4=61-80%) | 5 (5=81-100%) | 5 (5=81-100%) | 5 (5=81-100%) | 4 (4=61-80%) | 5 (5=81-100%)
3 | Fc1cnc(Cc2cc(C(F)(F)F)nn2-c2ccc(C(F)(F)F)cc2)nc1 [Compound 1.003] | 5 (5=81-100%) | 5 (5=81-100%) | 5 (5=81-100%) | 4 (4=61-80%) | 5 (5=81-100%) | 5 (5=81-100%) | 5 (5=81-100%) | 5 (5=81-100%) | 5 (5=81-100%) | 5 (5=81-100%)
4 | COc1cnc(Cc2cc(C(F)(F)F)nn2-c2ccc(C(F)(F)F)cc2)nc1 [Compound 1.004] | 5 (5=81-100%) | 4 (4=61-80%) | 5 (5=81-100%) | 5 (5=81-100%) | 5 (5=81-100%) | 5 (5=81-100%) | 5 (5=81-100%) | 5 (5=81-100%) | 5 (5=81-100%) | 5 (5=81-100%)
5 | N#Cc1ccc(-n2nc(C(F)(F)F)cc2Cc2ncc(Cl)cn2)cc1 [Compound 1.007, 4-[5-[(5-chloropyrimidin-2-yl)methyl]-3-(trifluoromethyl)pyrazol-1-yl]benzonitrile] | 5 (5=81-100%) | 3 (3=41-60%) | 5 (5=81-100%) | 5 (5=81-100%) | 5 (5=81-100%) | 5 (5=81-100%) | 5 (5=81-100%) | 5 (5=81-100%) | 5 (5=81-100%) | 5 (5=81-100%)
6 | FC(F)(F)c1cc(Cc2ncc(Cl)cn2)n(-c2ccc(Cl)cc2)n1 [Compound 1.008] | 5 (5=81-100%) | 3 (3=41-60%) | 5 (5=81-100%) | 5 (5=81-100%) | 5 (5=81-100%) | 5 (5=81-100%) | 4 (4=61-80%) | 5 (5=81-100%) | 5 (5=81-100%) | 5 (5=81-100%)
7 | N#Cc1cc(Cc2ncc(Cl)cn2)n(-c2ccc(F)c(F)c2)n1 [Compound 1.025, 5-[(5-chloropyrimidin-2-yl)methyl]-1-(3,4-difluorophenyl)pyrazole-3-carbonitrile] | 5 (5=81-100%) | 4 (4=61-80%) | – | 5 (5=81-100%) | 5 (5=81-100%) | 5 (5=81-100%) | 5 (5=81-100%) | 5 (5=81-100%) | – | 5 (5=81-100%)
8 | Fc1cc(-n2nc(C(F)(F)F)cc2Cc2ncc(Cl)cn2)cnc1Cl [Compound 1.026, 5-chloro-2-[[2-(6-chloro-5-fluoro-3-pyridyl)-5-(trifluoromethyl)pyrazol-3-yl]methyl]pyrimidine] | 5 (5=81-100%) | 2 (2=21-40%) | – | 5 (5=81-100%) | 5 (5=81-100%) | 5 (5=81-100%) | 5 (5=81-100%) | 5 (5=81-100%) | – | 5 (5=81-100%)
9 | FC(F)(F)c1ccc(-n2nc(C(F)(F)Cl)cc2Cc2ncc(Cl)cn2)cc1 [Compound 1.036] | 5 (5=81-100%) | 3 (3=41-60%) | – | 5 (5=81-100%) | 5 (5=81-100%) | 5 (5=81-100%) | 5 (5=81-100%) | 5 (5=81-100%) | 5 (5=81-100%) | 5 (5=81-100%)
10 | Cc1ccc(-n2nc(C(F)(F)F)cc2Cc2ncc(Cl)cn2)cc1 [Compound 1.037, 5-chloro-2-[[2-(p-tolyl)-5-(trifluoromethyl)pyrazol-3-yl]methyl]pyrimidine] | 4 (4=61-80%) | 3 (3=41-60%) | – | 5 (5=81-100%) | 5 (5=81-100%) | 5 (5=81-100%) | 1 (1=0-20%) | 5 (5=81-100%) | 5 (5=81-100%) | 5 (5=81-100%)
